This passage reports viscosity and mass density results from the NIST ThermoML archive (doi:10.1021/je030132i).

The conditions of data set [1]: 101.3 kPa, Liquid; for viscosity: Capillary tube (Ostwald / Ubbelohde) method; for mass density: Vibrating tube method.
The nature of data set [2]: xn = mol fraction of the nth substance listed. Particulars: 101.3 kPa, Liquid, x2 = 0; for viscosity: Capillary tube (Ostwald / Ubbelohde) method; for mass density: Vibrating tube method.

± gives the expanded uncertainty stated by the source.

Turning to `CC(O)CNCC(C)O` (stereo unspecified) [N-(2-hydroxypropyl)-2-hydroxy-1-propanamine], the viscosity in data set [1] (318.65 K) is 186.6 ± 4.6 mPa·s; in data set [1] (323.15 K), 125.7 ± 2.3 mPa·s; in data set [1] (333.15 K), 57.99 ± 0.62 mPa·s; in data set [1] (343.15 K) it was 29.55 ± 0.33 mPa·s. For the same compound, the mass density in data set [1] (318.65 K) is given as 988.22 ± 1 kg/m3; in data set [1] (323.15 K) it was 984.9 ± 1 kg/m3; in data set [1] (333.15 K), 977.3 ± 1 kg/m3; in data set [1] (343.15 K) it was 969.58 ± 0.99 kg/m3.
As for `O` [water], the viscosity worked out at 0.89 ± 0.006 mPa·s in data set [1] (298.15 K); 0.653 ± 0.004 mPa·s in data set [1] (313.15 K); 0.595 ± 0.004 mPa·s in data set [1] (318.65 K); 0.547 ± 0.004 mPa·s in data set [1] (323.15 K); 0.466 ± 0.003 mPa·s in data set [1] (333.15 K); 0.405 ± 0.003 mPa·s in data set [1] (343.15 K). Besides, the mass density is 988.04 ± 0.08 kg/m3 in data set [1] (323.15 K), 983.12 ± 0.08 kg/m3 in data set [1] (333.15 K) and 977.77 ± 0.08 kg/m3 in data set [1] (343.15 K).
As for `O` [water] + CC(O)CNCC(C)O, the viscosity stood at 0.89 ± 0.006 mPa·s in data set [2] (298.15 K); 0.653 ± 0.004 mPa·s in data set [2] (313.15 K); 0.595 ± 0.004 mPa·s in data set [2] (318.65 K); 0.547 ± 0.004 mPa·s in data set [2] (323.15 K); 0.466 ± 0.003 mPa·s in data set [2] (333.15 K); 0.405 ± 0.003 mPa·s in data set [2] (343.15 K). Also, the mass density in data set [2] (323.15 K) is reported as 988.04 ± 0.08 kg/m3; in data set [2] (333.15 K), 983.12 ± 0.08 kg/m3; in data set [2] (343.15 K), 977.77 ± 0.08 kg/m3.

The viscosity is the internal friction of a fluid under shear. The term mass density denotes the mass of a sample divided by its volume.
